Test results from patent US20240317744A1, “Bicyclic Ureas As Kinase Inhibitors” (Incyte Corporation, priority 2023, published 2024).

How the values were obtained:
[1] = biological target: T1, catalytic domain (JH1, amino acids 826-1132) of human JAK2 (Homo sapiens, UniProt O60674); assay: JAK2 LanthaScreen JH1 Binding Assay; settings: JAK2 JH1 1.5 nM, 50 nM tracer, 2 hours at 25° C.; read-out: JH1 BIND
T1 construct: catalytic domain (JH1, amino acids 826-1132) of human JAK2; FLAG (N); biotin (biotinylated); purchased Carna Biosciences 08-445-20N; host or cells: baculovirus expression system
T1 sequence (O60674 826-1132): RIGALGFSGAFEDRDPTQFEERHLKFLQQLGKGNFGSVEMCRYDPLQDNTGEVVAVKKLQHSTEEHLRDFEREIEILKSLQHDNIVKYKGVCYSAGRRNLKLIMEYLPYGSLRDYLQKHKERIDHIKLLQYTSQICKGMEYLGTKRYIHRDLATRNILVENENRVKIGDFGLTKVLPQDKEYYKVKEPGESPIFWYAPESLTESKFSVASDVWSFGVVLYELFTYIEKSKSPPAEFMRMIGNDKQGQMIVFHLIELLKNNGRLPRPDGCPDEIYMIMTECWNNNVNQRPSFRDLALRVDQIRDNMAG
Procedure, shortened: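 TR-FRET tracer-displacement format: compound IC50 from four-parameter curves after 2 h at 25° C. Reaction held 1.5 nM biotinylated, FLAG-tagged JH1 (aa 826-1132), 50 nM tracer, 0.5 nM Streptavidin-Tb, pH 7.5 Tris buffer; 2 mM ATP set nonspecific background.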

[2] = biological target: T2, pseudo-kinase domain (JH2, amino-acids 536-812) of human Wild Type JAK2 (Homo sapiens, UniProt O60674, F794H/W659A/W777A); assay: JAK2 LanthaScreen JH2-WT Binding Assay; settings: JAK2 JH2-WT 0.145 nM, 50 nM tracer, 1 hour at 25° C.; read-out: JH2 BIND WT
T2 construct: pseudo-kinase domain (JH2, amino-acids 536-812 with 3 surface mutations W659A, W777A, F794H); His (C); purchased BPS Bioscience 79463; host or cells: baculovirus expression system
T2 sequence (O60674 536-812 W659A/W777A/F794H): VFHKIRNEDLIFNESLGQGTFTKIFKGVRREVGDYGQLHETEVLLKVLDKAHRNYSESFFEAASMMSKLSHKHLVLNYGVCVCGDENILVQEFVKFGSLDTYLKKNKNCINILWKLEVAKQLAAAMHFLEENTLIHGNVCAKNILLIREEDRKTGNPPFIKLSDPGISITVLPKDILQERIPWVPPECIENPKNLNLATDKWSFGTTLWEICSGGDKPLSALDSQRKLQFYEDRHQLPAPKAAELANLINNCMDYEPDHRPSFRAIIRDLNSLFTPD
Procedure, shortened: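 Binding was measured by TR-FRET between streptavidin-Tb (0.25 nM) on biotinylated JH2 (0.145 nM) and 50 nM fluorescent tracer, with compound dose series, 1 h at 25° C; IC50 fitted.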

[3] = biological target: T3, pseudo-kinase domain (JH2, amino-acids 536-812) of human V617F mutant JAK2 (Homo sapiens, UniProt O60674, F794H/V617F/W659A/W777A); assay: JAK2 LanthaScreen JH2-V617F Binding Assay; settings: JAK2 JH2-V617F 0.26 nM, 50 nM tracer, 1 hour at 25° C.; read-out: JH2 BIND V617F
T3 construct: pseudo-kinase domain (JH2, amino-acids 536-812 with 3 surface mutations W659A, W777A, F794H); His (C); purchased BPS Bioscience 79498; host or cells: baculovirus expression system
T3 sequence (O60674 536-812 V617F/W659A/W777A/F794H): as the sequence (O60674 536-812 W659A/W777A/F794H) above, with V82F counted along it
Procedure, shortened: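 Serially diluted compounds are mixed with 0.26 nM protein, 50 nM fluorescent JAK2-JH2 tracer and 0.25 nM terbium-labelled streptavidin, then incubated 1 h at 25° C. LanthaScreen signal is read, and IC50 is fitted.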

[4] = biological target: catalytic domain (JH1, amino acids 808-1132) of human JAK2 (Homo sapiens, UniProt O60674); assay: JAK2 HTRF Enzyme Activity Assay; type: biochemical; settings: ATP 30 µM, 60 minutes at 25° C.; read-out: V617F ENZ 30 UM
catalytic domain (JH1, amino acids 808-1132) of human JAK2, sequence (O60674 808-1132 limits assumed): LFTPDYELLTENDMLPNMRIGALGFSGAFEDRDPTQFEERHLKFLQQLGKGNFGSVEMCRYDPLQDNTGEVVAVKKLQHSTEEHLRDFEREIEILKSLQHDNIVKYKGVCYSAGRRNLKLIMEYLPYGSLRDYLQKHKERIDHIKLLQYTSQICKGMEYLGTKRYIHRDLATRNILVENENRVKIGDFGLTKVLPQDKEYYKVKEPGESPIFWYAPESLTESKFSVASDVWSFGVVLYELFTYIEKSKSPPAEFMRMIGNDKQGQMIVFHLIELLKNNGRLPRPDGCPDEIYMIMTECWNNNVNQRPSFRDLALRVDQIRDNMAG

SMILES	IC50 [1] [nM]	IC50 [2] [nM]	IC50 [3] [nM]	IC50 [4] [nM]
[2H]C([2H])([2H])n1c(=O)n([C@@H]2CC[C@@H](NC(=O)OC)C2)c2cc(Nc3cc(CNC4CCCC4)cc(-c4ccc5c(c4)OCCO5)n3)ncc21 [Example 65, Methyl ((1R,3R)-3-(6-((4-((cyclopentylamino)methyl)-6-(2,3-dihydrobenzo[b][1,4]dioxin-6-yl)pyridin-2-yl)amino)-3-(methyl-d3)-2-oxo-2,3-dihydro-1H-imidazo[4,5-c]pyridin-1-yl)cyclopentyl)carbamate]	> 1000	≤ 10	≤ 10	> 1000
COC(=O)N[C@@H]1CC[C@@H](n2c(=O)n(C)c3cnc(Nc4ccnc(N5CCCCC5)n4)cc32)C1 [Example 66, Methyl ((1R,3R)-3-(3-methyl-2-oxo-6-((2-(piperidin-1-yl)pyrimidin-4-yl)amino)-2,3-dihydro-1H-imidazo[4,5-c]pyridin-1-yl)cyclopentyl)carbamate]	> 1000	≤ 10	10 to 100	> 1000
COC(=O)N[C@@H]1CC[C@@H](n2c(=O)n(C)c3cnc(Nc4cc(C)cc(-c5ccnc(OC)c5)n4)cc32)C1 [Example 67, Methyl ((1R,3R)-3-(6-((2′-methoxy-4-methyl-[2,4′-bipyridin]-6-yl)amino)-3-methyl-2-oxo-2,3-dihydro-1H-imidazo[4,5-c]pyridin-1-yl)cyclopentyl)carbamate]	> 1000	≤ 10	≤ 10	> 1000
COC(=O)N[C@@H]1CC[C@@H](n2c(=O)n(C)c3cnc(Nc4nc(-c5ccncc5)cs4)cc32)C1 [Example 68, Methyl ((1R,3R)-3-(3-methyl-2-oxo-6-((4-(pyridin-4-yl)thiazol-2-yl)amino)-2,3-dihydro-1H-imidazo[4,5-c]pyridin-1-yl)cyclopentyl)carbamate]	> 1000	500 to 1000	500 to 1000	> 1000
COC(=O)N[C@@H]1CC[C@@H](n2c(=O)n(C)c3cnc(Nc4ccc(F)c(-c5ccc(C(F)(F)F)nc5)n4)cc32)C1 [Example 69, Methyl ((1R,3R)-3-(6-((3-fluoro-6′-(trifluoromethyl)-[2,3′-bipyridin]-6-yl)amino)-3-methyl-2-oxo-2,3-dihydro-1H-imidazo[4,5-c]pyridin-1-yl)cyclopentyl)carbamate]	> 1000	≤ 10	≤ 10	> 1000
[2H]C([2H])([2H])n1c(=O)n([C@@H]2CC[C@@H](NC(=O)OC)C2)c2cc(Nc3cc(CN4CC[C@H](F)C4)cc(-c4ccc5c(c4)OCCO5)n3)ncc21 [Example 70, Methyl ((1R,3R)-3-(6-((6-(2,3-dihydrobenzo[b][1,4]dioxin-6-yl)-4-(((S)-3-fluoropyrrolidin-1-yl)methyl)pyridin-2-yl)amino)-3-(methyl-d3)-2-oxo-2,3-dihydro-1H-imidazo[4,5-c]pyridin-1-yl)cyclopentyl)carbamate]	> 1000	≤ 10	≤ 10	> 1000
COC(=O)N[C@@H]1CC[C@@H](n2c(=O)n(C)c3cnc(Nc4ccc(F)c(-c5ccc(CC#N)cc5)n4)cc32)C1 [Example 71, Methyl ((1R,3R)-3-(6-((6-(4-(cyanomethyl)phenyl)-5-fluoropyridin-2-yl)amino)-3-methyl-2-oxo-2,3-dihydro-1H-imidazo[4,5-c]pyridin-1-yl)cyclopentyl)carbamate]	> 1000	≤ 10	≤ 10	> 1000
COC(=O)N[C@@H]1CC[C@@H](n2c(=O)n(C)c3cnc(Nc4ccc(F)c(-c5ccc(C6CC6)cc5)n4)cc32)C1 [Example 72, Methyl ((1R,3R)-3-(6-((6-(4-cyclopropylphenyl)-5-fluoropyridin-2-yl)amino)-3-methyl-2-oxo-2,3-dihydro-1H-imidazo[4,5-c]pyridin-1-yl)cyclopentyl)carbamate]	> 1000	≤ 10	10 to 100	> 1000
